Where a name gives a salt, the structure may show the parent alone.
Experiments:
[1] = system: Stomach injury with hydrochloric acid/ethanol; assay: Anti-ulcer test (1): stomach injury with hydrochloric acid/ethanol; type: in vivo, Male rats of Sprague-Dawley strain; conditions: for Suppression % / Ulcer coefficient (mm) mean ± S.E.: 50 mg/kg oral, 1 hour before hydrochloric acid/ethanol, 8 animals, * p<0.05; for Ulcer coefficient (mm) mean ± S.E.: non-treated 78.4 ± 21.1
Protocol: Male rats of Sprague-Dawley strain (supplied by Charles-River Co., SPE) weighing 220 to 280 g were fasted for 24 hours and employed in the experiment, whereby the rats were allowed free access to water for the first 22 hours, with no water being given for the remaining 2 hours. The test compound was suspended in 0.5% aqueous carboxymethylcellulose solution and the suspension was given to the test animals at a dose of 1 ml/200 g body weight, with the solvent alone being applied as a control at the same dose. Rats were treated by oral administration of hydrochloric acid/ethanol (containing 0.15 mole hydrochloric acid solution in 80% ethanol) at a dose of 1 ml/200 g body weight and sacrificed with ether 1 hour later, and the stomachs and duodena were isolated, followed by removal of the contents from the duodena. After the cardiac orifices were ligated, 2% formalin solution was injected in 8 ml portion into the stomachs through the duodenum, and the pyloric sphincters were ligated, followed by immersion into the same solution for 10 min to perform slight fixation (hereinafter referred to as "formalin treatment"). The stomachs were incised along the greater curvature, and individual injuries (erosions) generated in the glandular portion of each stomach were measured in length (mm) under microscope for anatomy (10 fold magnification), with the total sum per rat of measured injury lengths being calculated. The test compound was given to the animals orally 1 hour before administration of hydrochloric acid/ethanol.

[2] = system: Stomach injury through water-immersion constraint stress; assay: Anti-ulcer test (2): stomach injury through water-immersion constraint stress; type: in vivo, Male rats of Sprague-Dawley strain; conditions: 50 mg/kg oral, immediately before stress-loading (23° C., 8 hours), 8 animals, * p<0.05; for Ulcer coefficient (mm) mean ± S.E.: non-treated 52.8 ± 9.8
Protocol: Male rats of Sprague-Dawley strain (supplied by Charles-River Co., SPE) weighing 220 to 280 g were fasted for 24 hours and employed in the experiment, whereby the rats were allowed free access to water for the first 22 hours, with no water being given for the remaining 2 hours. The test compound was suspended in 0.5% aqueous carboxymethylcellulose solution and the suspension was given to the test animals at a dose of 1 ml/200 g body weight, with the solvent alone being applied as a control at the same dose. The rats were stress-loaded by soaking the animals placed in a stress cage of Univ. of Tokyo type up to the xiphoid in a water tank at 23° C. and they were taken out of the tank 8 hours later and sacrificed with ether. The stomachs were isolated and treated with formalin, and individual injuries formed in the glandular portion of the stomach were measured in length (mm), with the total sum per rat of the measured injury lengths being calculated. The test compound was given to the test animals orally immediately before the stress-loading.

Solubility in water = type: physicochemical
mice = assay: Acute toxicity test, oral; conditions: 3 day observation
Description: Male ddy strain mice (weighing 23 to 26 g) used in the experiment were divided into groups each consisting of 3 heads and treated by oral administration of the test compound suspended with powdered gum arabic, followed by observation for any abnormalities over a 3 day period to find the number of dead animals.

Row | amount of compound dissolving in 2 ml of water (Solubility in water) [g] | Compound | Suppression % [1] [%] | Ulcer coefficient (mm) mean ± S.E. [1] [mm] | Suppression % [2] [%] | Ulcer coefficient (mm) mean ± S.E. [2] [mm] | effects in the anti-ulcer tests ([1]; conclusion in words from the test results) | suppressory activity in the anti-ulcer test, compared with control, tranexamic acid and cetraxate hydrochloride ([1]; summary in words of the anti-ulcer tests (Tables 1 and 2)) | Nd/No (No. of dead animals / total No. of experimental animals) (mice; 600 mg/kg oral) | Nd/No (No. of dead animals / total No. of experimental animals) (mice; 1,200 mg/kg oral) | mortality (mice; oral doses up to 1,200 mg/kg)
1 | – | NC[C@H]1CC[C@H](C(=O)Oc2ccc(CCC(=O)O)cc2)CC1 [Cetraxate hydrochloride] | 40.9 | 46.3 ± 7.6 | 39.4 | 32.0 ± 8.4 | – | – | – | – | –
2 | – | NC[C@H]1CC[C@H](C(=O)O)CC1 [Tranexamic acid, tranexamic acid] | 10.1 | 70.5 ± 20.1 | 11.9 | 46.5 ± 8.4 | did not produce any marked effects | – | – | – | –
3 | 1 | L-malic acid salt of zinc tranexamate monohydrate | – | – | – | – | – | – | – | – | –
4 | – | zinc tranexamate monohydrate | 81.1 | 14.8 ± 4.5 | 57.8 | 22.3 ± 8.4 | – | improved suppressory activity as compared with the control, or tranexamic acid and cetraxate hydrochloride | 0/3 | 0/3 | did not cause any animal to die

Reference: patent US5506264A, “Zinc tranexamate compounds” (Zaidan Hojin Seisan Kaihatsu Kaguki Kenkyusho, priority 1992, dated 1996)
